Literature values as cited in article PMC5292677 (Leukemia, 2016).
Where two headings read alike, the source gives them in different places.

Tested on: patients with MF
Conditions: cited from earlier work

Structure (SMILES): Cc1cnc(Nc2ccc(OCCN3CCCC3)cc2)nc1Nc1cccc(S(=O)(=O)NC(C)(C)C)c1 [fedratinib]
- Change in allele burden: no meaningful change in allele burden
- CRP and IL-6 levels (patients treated, no reference given): CRP downregulation was reported without significant IL-6 reduction

Structure (SMILES): N#CCNC(=O)c1ccc(-c2ccnc(Nc3ccc(N4CCOCC4)cc3)n2)cc1 [momelotinib]
- Change in allele burden: no meaningful change in allele burden

Structure (SMILES): C1=C/COCc2cc(ccc2OCCN2CCCC2)Nc2nccc(n2)-c2cccc(c2)COC/1 [pacritinib]
- Myelosuppression: lack of myelosuppression

Structure (SMILES): N#CC[C@H](C1CCCC1)n1cc(-c2ncnc3[nH]ccc23)cn1 [ruxolitinib]
- TNFα level (following 4 weeks' treatment): downregulated
- Change in allele burden (long-term treatment): only a modest reduction
